# How the values were obtained:
# Type in all cases: cell-based
# [1] = test system: Mannheimia haemolytica MH 6374 (ATCC 33396, reference strain); assay: MIC, broth-microdilution (CLSI VET01-A4), strain MH 6374; conditions: Mannheimia haemolytica strain MH 6374, broth-microdilution; unit assumed
# How it was run: (§1)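 Growth inhibition is scored visually on a doubling dilution series. The reported MIC corresponds to the lowest concentration free of turbidity, with results assessed under CLSI VET01-S3.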
# [2] = test system: Pasteurella multocida PM 10775 (080130003051, BRD field isolate); assay: MIC, broth-microdilution (CLSI VET01-A4), strain PM 10775; conditions: Pasteurella multocida strain PM 10775, broth-microdilution; unit assumed
# How it was run: as §1
# [3] = test system: Mannheimia haemolytica MH 13065 (XB0446-6003.9, BRD field isolate); assay: MIC, broth-microdilution (CLSI VET01-A4), strain MH 13065; conditions: Mannheimia haemolytica strain MH 13065, broth-microdilution; unit assumed
# How it was run: as §1
# [4] = test system: Mannheimia haemolytica MH 12587 (1071, BRD field isolate, macrolide-resistance: erm+, E+); assay: MIC, broth-microdilution (CLSI VET01-A4), strain MH 12587; conditions: Mannheimia haemolytica strain MH 12587, broth-microdilution; unit assumed
# How it was run: as §1
# [5] = test system: Mannheimia haemolytica MH 13093 (XB0472-6014.1, BRD field isolate); assay: MIC, broth-microdilution (CLSI VET01-A4), strain MH 13093; conditions: Mannheimia haemolytica strain MH 13093, broth-microdilution; unit assumed
# How it was run: as §1
# [6] = test system: Mannheimia haemolytica MH 10720 (154, BRD field isolate); assay: MIC, broth-microdilution (CLSI VET01-A4), strain MH 10720; conditions: Mannheimia haemolytica strain MH 10720, broth-microdilution; unit assumed
# How it was run: as §1
# [7] = test system: Mannheimia haemolytica MH 6357 (M7/2, reference strain, cattle infection strain); assay: MIC, broth-microdilution (CLSI VET01-A4), strain MH 6357; conditions: Mannheimia haemolytica strain MH 6357, broth-microdilution; unit assumed
# How it was run: as §1
# [8] = test system: Pasteurella multocida PM 6391 (ATCC 43137, reference strain); assay: MIC, broth-microdilution (CLSI VET01-A4), strain PM 6391; conditions: Pasteurella multocida strain PM 6391, broth-microdilution; unit assumed
# Description: For example, representative compounds were tested against ***, Mannheimia haemolytica and Pasteurella multocida, using the conventional broth-dilution assay.
# The Minimum inhibitory concentrations (MIC) of compounds according to the invention for a number of veterinary bacterial pathogens were determined by the broth-microdilution method according to CLSI document VET01-A4.
# Microdilution trays containing a doubling dilution series of the test compound were used for the tests. The MIC results were interpreted according to the CLSI documents VET01-S3. The lowest concentration of compound at which no visible growth (i.e. no turbidity) detected by the unaided eye was recorded as the MIC.
# [9] = test system: Pasteurella multocida PM 6267 (P 2225 (L386), reference strain, mouse infection strain); assay: MIC, broth-microdilution (CLSI VET01-A4), strain PM 6267; conditions: Pasteurella multocida strain PM 6267, broth-microdilution; unit assumed
# How it was run: as §1
# [10] = test system: Pasteurella multocida PM 12080 (IV102277-0093, BRD field isolate); assay: MIC, broth-microdilution (CLSI VET01-A4), strain PM 12080; conditions: Pasteurella multocida strain PM 12080, broth-microdilution; unit assumed
# How it was run: as §1
Compound,MIC PM 10775 [2],MIC PM 6391 [8],MIC PM 6267 [9],MIC PM 12080 [10],MIC MH 6374 [1],MIC MH 13065 [3],MIC MH 12587 [4],MIC MH 13093 [5],MIC MH 10720 [6],MIC MH 6357 [7]
CC[C@H](C)[C@H](NC(=O)c1ccc(C#Cc2ccc(CNC3CCCC3)cc2)cc1)C(=O)NO [Compound 196],≤ 0.1 µg/mL,0.8 µg/mL,0.2 µg/mL,0.4 µg/mL,12.5 µg/mL,6.3 µg/mL,12.5 µg/mL,12.5 µg/mL,1.6 µg/mL,6.3 µg/mL
CC[C@H](C)[C@H](NC(=O)c1ccc(C#Cc2ccc(CNC3CCCCC3)cc2)cc1)C(=O)NO [Compound 195],≤ 0.1 µg/mL,0.8 µg/mL,0.2 µg/mL,0.4 µg/mL,12.5 µg/mL,6.3 µg/mL,12.5 µg/mL,12.5 µg/mL,1.6 µg/mL,6.3 µg/mL
CC[C@H](C)[C@H](NC(=O)c1ccc(C#Cc2ccc(CNCCCOC)cc2)cc1)C(=O)NO [Compound 177],≤ 0.1 µg/mL,3.1 µg/mL,0.8 µg/mL,1.6 µg/mL,6.3 µg/mL,6.3 µg/mL,12.5 µg/mL,6.3 µg/mL,1.6 µg/mL,3.1 µg/mL
CSC(C)(C)[C@H](NC(=O)c1ccc(C#Cc2ccc(CNC3CC3)cc2)cc1)C(=O)NO [Compound 235],≤ 0.1 µg/mL,≤ 0.1 µg/mL,≤ 0.1 µg/mL,≤ 0.1 µg/mL,0.8 µg/mL,0.4 µg/mL,1.6 µg/mL,0.4 µg/mL,≤ 0.1 µg/mL,0.4 µg/mL
CC(C)[C@H](NC(=O)c1ccc(C#Cc2ccc(CNCc3ncc[nH]3)cc2)cc1)C(=O)NO [Compound 173],≤ 0.1 µg/mL,0.8 µg/mL,≤ 0.1 µg/mL,0.4 µg/mL,3.1 µg/mL,6.3 µg/mL,6.3 µg/mL,6.3 µg/mL,0.8 µg/mL,3.1 µg/mL
CC1CN(Cc2ccc(C#Cc3ccc(C(=O)N[C@@H](CO)C(=O)NO)cc3)cc2)CC(C)O1 (stereo partly drawn) [Compound 155],≤ 0.1 µg/mL,0.4 µg/mL,≤ 0.1 µg/mL,0.4 µg/mL,12.5 µg/mL,12.5 µg/mL,25 µg/mL,25 µg/mL,1.6 µg/mL,12.5 µg/mL
COCCNCc1ccc(C#Cc2ccc(C(=O)N[C@H](C(=O)NO)C(C)(C)S(C)(=O)=O)cc2)s1 [C.313],≤ 0.1 µg/mL,≤ 0.1 µg/mL,0.2 µg/mL,≤ 0.1 µg/mL,1.6 µg/mL,0.4 µg/mL,1.6 µg/mL,0.8 µg/mL,≤ 0.1 µg/mL,0.4 µg/mL
CC(C)[C@H](NC(=O)c1ccc(C#Cc2ccc(CNCC3CCCO3)cc2)cc1)C(=O)NO (stereo partly drawn) [Compound 200],≤ 0.1 µg/mL,0.2 µg/mL,≤ 0.1 µg/mL,0.2 µg/mL,3.1 µg/mL,1.6 µg/mL,6.3 µg/mL,3.1 µg/mL,0.8 µg/mL,6.3 µg/mL
CC(C)(O)[C@H](NC(=O)c1ccc(C#Cc2ccc(CNCc3cccnc3)cc2)cc1)C(=O)NO [Compound 228],≤ 0.1 µg/mL,≤ 0.1 µg/mL,≤ 0.1 µg/mL,≤ 0.1 µg/mL,0.4 µg/mL,0.4 µg/mL,1.6 µg/mL,0.8 µg/mL,≤ 0.1 µg/mL,0.8 µg/mL
CC(C)([C@H](NC(=O)c1ccc(C#Cc2ccc(CNCc3cccnc3)s2)cc1)C(=O)NO)S(C)(=O)=O [C.319],≤ 0.1 µg/mL,≤ 0.1 µg/mL,0.2 µg/mL,≤ 0.1 µg/mL,0.2 µg/mL,0.4 µg/mL,0.8 µg/mL,0.4 µg/mL,≤ 0.1 µg/mL,0.2 µg/mL
CCNCc1ccc(C#Cc2ccc(C(=O)N[C@H](C(=O)NO)[C@@H](C)CC)cc2)cc1 [Compound 176],≤ 0.1 µg/mL,3.1 µg/mL,0.8 µg/mL,1.6 µg/mL,6.3 µg/mL,6.3 µg/mL,12.5 µg/mL,12.5 µg/mL,3.1 µg/mL,3.1 µg/mL

# Continued, in another order:
MIC PM 10775 [2],MIC PM 6391 [8],MIC PM 6267 [9],MIC PM 12080 [10],Compound,MIC MH 6374 [1],MIC MH 13065 [3],MIC MH 12587 [4],MIC MH 13093 [5],MIC MH 10720 [6],MIC MH 6357 [7]
≤ 0.1 µg/mL,0.4 µg/mL,≤ 0.1 µg/mL,0.2 µg/mL,C=CCNCc1ccc(C#Cc2ccc(C(=O)NC(C(=O)NO)C(C)(C)[N+](=O)[O-])cc2)cc1 (stereo not drawn) [Compound 280],0.8 µg/mL,1.6 µg/mL,3.1 µg/mL,1.6 µg/mL,≤ 0.1 µg/mL,1.6 µg/mL
≤ 0.1 µg/mL,0.4 µg/mL,0.4 µg/mL,≤ 0.1 µg/mL,CSC(C)(C)[C@H](NC(=O)c1ccc(C#Cc2ccc(CNCc3ccncc3)s2)cc1)C(=O)NO [Compound 364],0.8 µg/mL,0.8 µg/mL,1.6 µg/mL,0.8 µg/mL,0.2 µg/mL,0.8 µg/mL
≤ 0.1 µg/mL,≤ 0.1 µg/mL,0.4 µg/mL,≤ 0.1 µg/mL,CC(C)([C@H](NC(=O)c1ccc(C#Cc2ccc(CN3CCOCC3)s2)cc1)C(=O)NO)S(C)(=O)=O [Compound 314],1.6 µg/mL,0.4 µg/mL,0.8 µg/mL,0.8 µg/mL,≤ 0.1 µg/mL,0.4 µg/mL
≤ 0.1 µg/mL,0.8 µg/mL,0.4 µg/mL,0.4 µg/mL,CC(C)([C@H](NC(=O)c1ccc(C#Cc2ccc(CNCc3cccnc3)nc2)cc1)C(=O)NO)S(C)(=O)=O [Compound 373],3.1 µg/mL,3.1 µg/mL,6.3 µg/mL,3.1 µg/mL,0.4 µg/mL,1.6 µg/mL
0.2 µg/mL,1.6 µg/mL,0.4 µg/mL,0.8 µg/mL,CSC(C)(C)[C@H](NC(=O)c1ccc(C#Cc2ccc(CN3CCCC3)cc2)cc1)C(=O)NO [Compound 242],6.3 µg/mL,3.1 µg/mL,6.3 µg/mL,3.1 µg/mL,0.8 µg/mL,6.3 µg/mL
≤ 0.1 µg/mL,0.4 µg/mL,3.1 µg/mL,0.4 µg/mL,CC(C)(O)[C@H](NC(=O)c1ccc(C#Cc2ccc(CN3CCOCC3)nc2)cc1)C(=O)NO [Compound 326],6.3 µg/mL,3.1 µg/mL,12.5 µg/mL,6.3 µg/mL,0.8 µg/mL,3.1 µg/mL
≤ 0.1 µg/mL,≤ 0.1 µg/mL,0.2 µg/mL,≤ 0.1 µg/mL,CC(C)([C@H](NC(=O)c1ccc(C#Cc2ccc(CNCc3ccncc3)s2)cc1)C(=O)NO)S(C)(=O)=O [Compound 317],0.4 µg/mL,0.4 µg/mL,0.8 µg/mL,0.4 µg/mL,≤ 0.1 µg/mL,0.2 µg/mL
0.4 µg/mL,3.1 µg/mL,6.3 µg/mL,1.6 µg/mL,CSC(C)(C)[C@H](NC(=O)c1ccc(C#Cc2ccc(CNCc3ncccn3)nc2)cc1)C(=O)NO [Compound 346],6.3 µg/mL,6.3 µg/mL,12.5 µg/mL,12.5 µg/mL,0.8 µg/mL,6.3 µg/mL
0.2 µg/mL,1.6 µg/mL,3.1 µg/mL,0.8 µg/mL,Cc1ccc(CNCc2ccc(C#Cc3ccc(C(=O)NC(C(=O)NO)C(C)(C)[N+](=O)[O-])cc3)cc2)cc1 (stereo not drawn) [Compound 283],3.1 µg/mL,1.6 µg/mL,6.3 µg/mL,3.1 µg/mL,0.2 µg/mL,3.1 µg/mL
≤ 0.1 µg/mL,≤ 0.1 µg/mL,0.4 µg/mL,0.2 µg/mL,CC(C)(O)[C@H](NC(=O)c1ccc(C#Cc2ccc(CNCc3ccccn3)s2)cc1)C(=O)NO [Compound 297],0.4 µg/mL,0.4 µg/mL,0.8 µg/mL,0.4 µg/mL,≤ 0.1 µg/mL,0.2 µg/mL
